Read-outs that look alike come from different tables or passages of the source.
Key:
Conditions in all cases: mouse, at 4 hours
[1] = test system: constipation induced by morphine
Protocol: The mice were divided into three groups one as control and two administered intraperitoneally with morphine hydrochloride (5 mg/kg).

[2] = test system: constipation induced by loperamide
[3] = test system: constipation induced by loperamide; remark: listed apart in the source
Protocol: The mice were divided into three groups one as control and two administered with loperamide hydrochloride (5 mg/kg).

CN1CC[C@]23c4c5ccc(O)c4O[C@H]2[C@@H](O)C=C[C@H]3[C@H]1C5 [morphine, reference compound]
wet weight of stools, opioid alone ([1]; morphine hydrochloride 5 mg/kg intraperitoneally alone, control group 200 mg): 25 mg

Tyrosyl-D-arginyl-cinnamylpiperazine dihydrochloride [peptidomimetic 3]
stools relative to control group ([2]; loperamide 5 mg/kg with peptidomimetic 10 mg/kg in 20% gum arabic): 60%
wet weight of stools ([2]; loperamide 5 mg/kg with peptidomimetic 10 mg/kg in 20% gum arabic, control group 200 mg): 120 mg

CN(C)C(=O)C(CCN1CCC(O)(c2ccc(Cl)cc2)CC1)(c1ccccc1)c1ccccc1 [loperamide, reference compound]
wet weight of stools, opioid alone ([3]; loperamide hydrochloride 5 mg/kg alone, control group 200 mg): 15 mg
wet weight of stools, opioid alone ([2]; loperamide 5 mg/kg orally in 20% gum arabic alone, control group 200 mg): 22 mg

tyrosyl-D-threonyl-glycyl-phenylalanyl-cinnamylpiperazine hydrochloride [peptidomimetic 2]
reversal of morphine effect on stools ([1]; peptidomimetic orally 30 minutes before morphine hydrochloride 5 mg/kg intraperitoneally): fully reversed morphine effect

tyrosyl-D-alanyl-glycyl-cinnamylpiperazine hydrochloride [peptidomimetic 1]
stools relative to control group ([3]; peptidomimetic 10 mg/kg orally 30 minutes before loperamide hydrochloride 5 mg/kg): 80%
wet weight of stools ([3]; peptidomimetic 10 mg/kg orally 30 minutes before loperamide hydrochloride 5 mg/kg, control group 200 mg): 160 mg

Source: patent US9169288B2, “Peptidomimetics and their application” (Instytut Medycyny Doswiadczalnej i Klinicznej im. Miroslawa …, priority 2012, dated 2015)
